Experimental data taken from patent publication US9926293B2, “Multivalent RAS binding compounds” (THE TRUSTEES OF COLUMBIA UNIVERSITY IN THE CITY OF NEW YORK, priority 2014, dated 2018).

How the values were obtained:
GppNHp-loaded RALA = molecular target: T1, GppNHp-loaded RALA (Homo sapiens, UniProt P11233); test: Microscale thermophoresis on GppNHp-loaded RALA; assay type: binding; conditions: MST, up to 190 μM
T1 construct: purchased Abcam ab102555
Method: (§1) KRAS^G12D (250 μM) in 25 mM HEPES, 100 mM sodium chloride, 2 mM TCEP with 20 mM EDTA and 1 mM GppNHp was shaken at 220 rpm at 30° C. to remove the endogenous nucleotide, The solution was placed on ice for 2 minutes prior to the addition of 65 mM MgCl2. After an additional 10 minutes incubation on ice, 200 uL of a 10 uM solution of KRAS^G12D was combined with 200 uL of a 20 uM solution of NT-647-NHS-ester dye (from a 652.4 μM stock). The protein/dye mixture was rotated at 4° C. for 30 minutes, before being separated from the excess dye and buffer exchanged into 25 mM Tris, 100 mM sodium chloride, 2 mM TCEP, and 5 mM MgCl2 via a nap-5 column. The test compounds were arrayed across a 16-point dilution series consisting of 1.5% DMSO with 25 mM Tris, 100 mM NaCl, 2 mM TCEP, 5 mM MgCl2 and 0.05% tween-20. Thermophoretic movement of the fluorescently labeled protein with the inhibitors was performed using a Monolith NT.115 (Nanotemper Technologies). RALA and RHOA were purchased commercially from Abcam (RALA CN:ab102555, RHOA CN:ab101594).
To provide evidence that the compound indeed was selective for RAS GTPases, MST binding measurements were performed on GppNHp-loaded RHEB, RHOA and RALA (FIG. 14J).

[1] = system: Mia-Paca2, NCI-H441, NCI-H23, BJeLR and HT1080 cells; test: Expression of the mutant RAS isoform by qPCR; assay type: cell-based; conditions: 4 and 24 hours, 10 μM
From the text: Samples were normalized to DMSO treatment.
In addition to altering genes associated with RAS activation, it was hypothesized that upon inhibitor treatment, cells would attempt to compensate by expressing additional RAS proteins.

KRAS^G12D with GDP = molecular target: T2, KRAS^G12D with GDP (Homo sapiens, UniProt P01116, G12D); test: Microscale thermophoresis, GDP-loaded KRAS^G12D; assay type: binding
T2 construct: made in house; host or cells: Escherichia coli BL21-Gold (DE3)
Method: as §1, with “KRAS^G12D (250 μM) in 25 mM HEPES, 100 mM sodium chloride, 2 mM TCEP with 20 mM EDTA and 1 mM GppNHp was shaken at 220 rpm at 30° C. to remove the endogenous nucleotide, The solution was placed on ice for 2 minutes prior to the addition of 65 mM MgCl2.” left out

[2] = system: HT-1080 cells (NRAS^Q61K) transfected; test: Sensitivity of HT-1080 cells overexpressing KRAS^G12V, PI3K^E545K, BRAF^V600E; assay type: cell-based; conditions: BRAF^V600E or both, 5 μM, 24 h
Method: RAS, PI3K and BRAF Overexpression.
Phoenix-AMPHO (ATCC: CRL-3213) cells were seeded in a 6-well plate at 600,000 cells/well 24 hours prior to use in 10% FBS and 1% PS in DMEM. A solution of lipofectamine 2000 (6 μL) in 100 μL opti-mem media (reduced serum media) and the plasmid (2.5 μg) in 100 μL opti-mem media were combined and incubated 5 minutes at 25° C., then added to 1.8 mL of opti-mem in each well. After 12 hours, the media was replaced with 10% FBS and 1% PS in DMEM. The next day the supernatant was collected three times spaced 4 hours apart and polybrene was added ( 1/1000). The supernatant was filtered (0.45 μm) and added to HT1080 cells seeded at 100,000 cells per well (6-well dish) in 2 mL portions spaced 4 hours apart. After 48 hours, the cells were trypsinized and re-seeded in medium containing puromycin (2 μg/mL). After 6 days of selection the cells were analyzed for expression using the aforementioned qPCR procedure. 2 mL solutions of the inhibitors were added to a 6-well plate of the transfected HT-1080 cells (100,000 cells/well) and treated for 24 hours. The cells were then trypsinized, re-suspended in 1 mL of medium and viability was measured by VI-CELL (Beckman Coulter) through mixing with trypan blue.

BJeLR (HRAS^G12V) cells = test: Gene expression analysis by RT-qPCR; assay type: cell-based
Method: FIG. 22A-FIG. 22D show BJeLR cells were treated with DMSO, 31 MEW44 at 5 μM and/or 25 μM alongside BJHLT treated with DMSO for one hour. Cells were lysed and the RNA was extracted, converted to cDNA and quantified by qPCR.
Gene Expression Analysis by RT-qPCR
Cells from six-well plates were trypsinized and centrifuged at 3,000 rpm for 3 minutes. The cell pellet was then lysed and the RNA was extracted using QIAshreader and RNAeasy extraction kits (QIAGEN) according to the manufacturer's protocol. 2 micrograms of RNA from each sample was then converted to cDNA using the TaqMan RT Kit (Applied Biosystems). Primers for Quantitative PCR (qPCR) were designed with Primer Express. qPCR was performed using Power SYBR Green Master Mix (Applied Biosystems) in a 96-well format, in triplicate, using an Applied Biosystems 7300 Cycler set to absolute quantification. Expression changes were computed using the ΔΔCt method with GAPDH as an internal reference gene. The primers used were as follows: urokinase-type plasminogen activator (uPA) Forward 5′ […] 3′ (SEQ ID NO: 54), reverse 5′ […] 3′ (SEQ ID NO: 55); matrix metalloprotease 9 (MMP9) forward 5′ […] 3′ (SEQ ID NO: 56), reverse 5′ […] 3′ (SEQ ID NO: 57); lactate dehydrogenase (LDH) forward 5′ […] 3′ (SEQ ID NO: 58), reverse 5′ […] 3′ (SEQ ID NO: 59); CMYC forward 5′ […] 3′ (SEQ ID NO: 60), reverse 5′ […] 3′ (SEQ ID NO: 61).

T1 sequence (P11233 whole entry): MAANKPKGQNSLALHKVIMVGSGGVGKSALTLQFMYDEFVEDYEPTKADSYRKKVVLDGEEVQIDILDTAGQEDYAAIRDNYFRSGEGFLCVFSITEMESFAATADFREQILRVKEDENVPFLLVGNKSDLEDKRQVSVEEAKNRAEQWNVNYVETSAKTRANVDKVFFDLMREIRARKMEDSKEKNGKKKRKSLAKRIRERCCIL

NC1(C(=O)NCCCn2cc(-c3ccc(OC(F)(F)F)cc3)c3cc(CN4CCN(Cc5c(Cl)cccc5Cl)CC4)ccc32)CCNCC1 [Compound 31MEW44, 4-amino-N-(3-(5-((4-(2,6-dichlorobenzyl)piperazin-1-yl)methyl)-3-(4-(trifluoromethoxy)phenyl)-1H-indol-1-yl)propyl)piperidine-4-carboxamide]
binding (GppNHp-loaded RALA): no binding was observed | RAS expression [1]: time-dependent increase of RAS expression | loss in affinity (KRAS^G12D with GDP; GDP-loaded vs GppNHp-loaded KRAS^G12D): five-fold | Kd (KRAS^G12D with GDP; MST, GDP-loaded KRAS^G12D): 45 µM | resistance on overexpression [2]: resistance was indeed observed in all cases | CMYC mRNA (BJeLR (HRAS^G12V) cells): dose-dependent reduction in CMYC mRNA | LDH expression (BJeLR (HRAS^G12V) cells): decreased these elevated levels of LDH, dose-dependently | MMP9 expression (BJeLR (HRAS^G12V) cells): Downregulation of MMP9 expression | DUSP6 and IDH2 expression profile (BJeLR (HRAS^G12V) cells; 5 μM and 25 μM): profile characteristic of decreased activation of RAS signaling | uPA expression (BJeLR (HRAS^G12V) cells; 5 μM and 25 μM): dose-dependent decrease in uPA expression
